This is an account of results in patent US6187296A, “Lysine decarboxylase inhibitors for the prevention and treatment of periodontal disease” (priority 2000, dated 2001).

The subject of test [1] is lysine decarboxylase. To be noted: Mycoplasma dispar; cited from earlier work.
For test [2], the target named is T1, lysine decarboxylase (Selenomonas ruminantium, UniProt O50657).
T1 construct: host or cells: Selenomonas ruminantium
Particulars: cited from earlier work.

The target of test [3] is T2, lysine decarboxylase (Escherichia coli, UniProt P0A9H3).
T2 construct: host or cells: Escherichia coli
T2 sequence (P0A9H3 whole entry): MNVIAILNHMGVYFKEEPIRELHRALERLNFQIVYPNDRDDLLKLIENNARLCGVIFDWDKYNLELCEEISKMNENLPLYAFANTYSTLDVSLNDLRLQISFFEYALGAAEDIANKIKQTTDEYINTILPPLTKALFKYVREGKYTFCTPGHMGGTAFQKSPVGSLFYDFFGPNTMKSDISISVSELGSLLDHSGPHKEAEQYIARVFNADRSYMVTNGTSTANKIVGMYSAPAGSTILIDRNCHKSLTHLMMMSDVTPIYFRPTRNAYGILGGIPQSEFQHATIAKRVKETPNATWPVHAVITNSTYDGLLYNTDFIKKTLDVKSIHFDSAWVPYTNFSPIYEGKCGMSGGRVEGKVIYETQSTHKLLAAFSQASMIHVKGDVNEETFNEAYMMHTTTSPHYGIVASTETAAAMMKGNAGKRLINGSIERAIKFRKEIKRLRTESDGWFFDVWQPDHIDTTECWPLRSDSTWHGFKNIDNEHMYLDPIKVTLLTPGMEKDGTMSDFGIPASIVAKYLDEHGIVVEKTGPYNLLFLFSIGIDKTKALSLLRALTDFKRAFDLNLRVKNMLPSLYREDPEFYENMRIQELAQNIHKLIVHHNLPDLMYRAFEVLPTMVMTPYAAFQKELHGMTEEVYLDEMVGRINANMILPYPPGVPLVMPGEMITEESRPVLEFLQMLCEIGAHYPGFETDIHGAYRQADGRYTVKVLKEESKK
To be noted: cited from earlier work.

In a further test the test system is HL60 cells. The class given is cell-based. To be noted: FIG. 3; control 0.22 mM lysine; 0.72 mM lysine and/or 0.42 mM EACA.
Test [4] concerns the target lysine decarboxylase (Eikenella corrodens, UniProt Q9Z4R7). The test can be described thus: Cadaverine production by E. corrodens extract as a function of initial lysine concentration. The class given is biochemical. To be noted: 0.42 mM EACA. How it is done:
FIGS. 4A and 4B are graphs showing cadaverine production as a function of initial lysine concentration in the presence and absence of […] ε-amino-n-caproic acid (EACA). […] Initial rate of cadaverine produced (from 0.3 μg E. corrodens extract protein/ml) graphed against the initial lysine concentration. A. Cadaverine produced after 20 min: Enzyme only: .circle-solid.-.circle-solid.; with 0.42 ImM EACA .smallcircle. . . . .smallcircle.. B. Enlarged inset, cadaverine produced after 16 h (limited substrate): Enzyme only .circle-solid.-.circle-solid.; with 0.42 mM EACA .smallcircle. . . . .smallcircle..
The results of FIG. 1 were obtained when 0.1 ml of E. corrodens extract (10 μg protein/ml), or plaque extract (100 μg protein/ml) was added to 0.5×10^5 HL60 cells or 2×10^5 HeLa cells in 0.5 ml growth medium in 48-well plates (Costar, Cambridge, Mass.). The cells were incubated for 96 h at 37° C. in 5% CO2 in air, examined visually and counted on a Coulter Counter (Coulter Electronics Hialeah, Fla.). […] The samples were incubated at 43° C. for 5.0 min, vortexed with 2.0 ml toluene for 20 sec, centrifuged at 2,000 rpm for 5 min and the absorbance of the toluene layer read at 340 nm. From a standard curve, the cadaverine produced was measured and subtracted from the amount of free lysine initially in the medium plus extract after 16 h or 40 h. […]

Test [5] deals with lysine decarboxylase. Put plainly: Lysine decarboxylase activity in Mycoplasma dispar. The class given is biochemical. Particulars: half of the DL-form inhibiting values.
The target of test [6] is T1, lysine decarboxylase. Put plainly: Lysine decarboxylase activity in Selenomonas ruminantium. The class given is biochemical. Particulars: half of the DL-form inhibiting values, read-out: Equivalent L inhibitory values.

The structures appear in SMILES notation.

T1 sequence (O50657 whole entry): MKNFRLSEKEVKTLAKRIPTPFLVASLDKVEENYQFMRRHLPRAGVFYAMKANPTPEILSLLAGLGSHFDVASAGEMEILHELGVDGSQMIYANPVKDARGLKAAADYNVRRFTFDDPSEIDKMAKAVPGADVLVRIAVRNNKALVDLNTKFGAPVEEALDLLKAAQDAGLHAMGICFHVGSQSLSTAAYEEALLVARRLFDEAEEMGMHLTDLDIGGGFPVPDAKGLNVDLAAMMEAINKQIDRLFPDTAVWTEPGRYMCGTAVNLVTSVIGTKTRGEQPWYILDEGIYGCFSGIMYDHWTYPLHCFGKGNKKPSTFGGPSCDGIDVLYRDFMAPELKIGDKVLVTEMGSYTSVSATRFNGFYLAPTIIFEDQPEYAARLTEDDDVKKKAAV
Chain of lysine decarboxylase (Eikenella corrodens, UniProt Q9Z4R7) (Q9Z4R7 entry or part of it): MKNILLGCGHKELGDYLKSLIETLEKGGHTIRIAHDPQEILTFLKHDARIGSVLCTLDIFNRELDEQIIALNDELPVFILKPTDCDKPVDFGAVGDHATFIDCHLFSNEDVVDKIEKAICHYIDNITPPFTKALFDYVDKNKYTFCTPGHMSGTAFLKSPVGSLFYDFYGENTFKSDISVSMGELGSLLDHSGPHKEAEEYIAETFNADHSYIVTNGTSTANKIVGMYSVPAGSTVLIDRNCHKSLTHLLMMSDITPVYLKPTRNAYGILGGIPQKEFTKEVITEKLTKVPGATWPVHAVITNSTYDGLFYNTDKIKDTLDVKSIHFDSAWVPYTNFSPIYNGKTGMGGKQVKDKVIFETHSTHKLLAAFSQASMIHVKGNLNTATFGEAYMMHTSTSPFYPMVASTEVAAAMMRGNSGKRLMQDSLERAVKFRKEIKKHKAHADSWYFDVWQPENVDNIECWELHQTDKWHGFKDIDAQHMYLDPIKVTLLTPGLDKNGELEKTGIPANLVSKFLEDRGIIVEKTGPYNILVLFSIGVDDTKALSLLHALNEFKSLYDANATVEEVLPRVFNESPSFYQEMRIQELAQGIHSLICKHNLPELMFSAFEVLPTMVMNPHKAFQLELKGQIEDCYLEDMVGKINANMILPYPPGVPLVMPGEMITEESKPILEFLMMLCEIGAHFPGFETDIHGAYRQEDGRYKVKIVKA
Method for HL60 cells: Graphs show the percent growth inhibition after 96 h (2A) and the percent lysine remaining (2B) after 40 h incubation (obtained as described in legend to FIG. 1).

Regarding `NCCCC(N)(C(=O)O)C(F)F` (racemic) [DFMO], the “Effect on lysine decarboxylase activity” value in the test with lysine decarboxylase [1] and on lysine decarboxylase [2] was “no effect” in each case.
For `N=C(N)NCCCC(N)(C(=O)O)C(F)F` (racemic) [DFMR], the “Effect on lysine decarboxylase activity” value in the test on lysine decarboxylase [1] and at lysine decarboxylase [2] was “no effect” in each case.
As for `NCCCCCC(=O)O` [EACA, ε-amino-n-caproic acid], the “Effect on lysine decarboxylase from E. coli” value at lysine decarboxylase [3] is on record as “inhibits”. The “Effect on growth inhibiting activity of E. corrodens extract” value in the test with HL60 cells is recorded as “increased the growth inhibition”. Further, the “Effect on the E. corrodens enzyme at high lysine concentrations” value at lysine decarboxylase [4] (high lysine concentrations) is reported as “inhibits the enzyme”. In addition, the “Effect on the E. corrodens enzyme at low lysine concentrations” value at lysine decarboxylase [4] (lysine 0.22-0.72 mM as in growth media) is recorded as “activates the enzyme”.
As for `NCCCC[C@](N)(C(=O)O)C(F)F` [L-DFML], the “Equivalent L inhibitory values” with lysine decarboxylase [5] lay within 0.05 to 0.50 mM. Moreover, on lysine decarboxylase [6], the IC100 was in the range of 50 to 500 µM.
As for `NCCCC[C@H](N)C(=O)O` [lysine], the “Effect on growth inhibiting activity of E. corrodens extract” value in the test with HL60 cells is on record as “decreased the growth inhibiting activity”.
